# Source: publication PMC5812233, “A novel CAV derived cell-penetrating peptide efficiently delivers exogenous molecules through caveolae-mediated endocytosis” (Veterinary Research, 2018)
# “Also recorded” adds a separate entry of the source. No end group written: not given here. *: point of attachment. FITC = O=C1OC2(c3ccc(O)cc3Oc3cc(O)ccc32)c2ccc(NC(=S)*)cc21
# Legend:
# HCT116 cells [1] = assay: Plasmid (pCDNA3.1-RFP) transfection, fluorescence microscopy and flow cytometry; assay type: cell-based; conditions: 40 µM peptide, 1 µg plasmid DNA; for RFP fluorescence of cells treated with peptide-pCDNA3.1-RFP complex: 48 h post-transfection, fluorescence microscope
# Experimental: (§1) The linking of DNA with CVP1 was made by the charge interaction. To confirm the formation of the peptide and plasmid complexes, the CVP1 peptide (5 μM) and plasmid DNA (200 ng) were diluted in 10 µL Opti-MEM and co-incubated at 37 °C for 45 min, and then agarose gel retardation assay was performed as described previously. The transfection experiment was conducted to test the transfection efficiency of CVP1-DNA on HCT116 cells as described previously. Briefly, 1 μg of plasmid DNA and 40 µM of CVP1 peptide or TAT peptide were diluted in 50 µL Opti-MEM, respectively and incubated at RT for 30 min. The lipofectamine 2000 (Invitrogen, USA) was used as a positive control, following the manual provided by the manufacture. […] Meanwhile, the fluorescence intensity was measured by Flow cytometry as described previously.
# HCT116 cells [2] = assay: Flow cytometry of cellular uptake of FITC-labeled peptides; assay type: cell-based; conditions: for mean percent of relative internalization: 10 000 events, three experiments in triplicate (Figure 3D)
# Experimental: The comparison of cell-penetrating efficiency of peptides in HCT116 cells was tested by incubating the cells with CVP1 or TAT peptides. […] The cells were washed twice by centrifugation and finally resuspended in 400 µL PBS for assaying of cellular fluorescent intensity by flow cytometry (BD FACSAria SORP, Becton–Dickinson, USA). A total of 10 000 events were recorded. Data was obtained and analyzed using Flowjo software.
# HD11 cells = assay: Poly (I:C) delivery, IFN-β mRNA by real-time PCR; assay type: cell-based; conditions: 10 µM peptide, 5 µg poly (I:C), 6 h
# Experimental: To analyze the ability of CVP1 to delivery poly(I;C), the CVP1 (10 µM) was first mixed with the poly (I:C) (5 µg) for 45 min at 37 °C for generating the complex. And then, the HD11 cells were incubated with peptide-poly (I:C) complexes, peptide (10 µM) only or poly (I:C) (5 µg) with transfecting reagent. After 6 h of incubation, the cells were collected and total RNA extracted using total RNA purification kit (Axygen, USA). 1 µg of RNA was reverse transcribed into cDNA with a reverse transcription reagent kit (Takara, Japan). The relative mRNA level of IFN-β was detected by Real-time PCR.
# HCT116 cells [3] = assay: Cell internalization pathway: endocytosis inhibitors and temperature, flow cytometry; assay type: cell-based
# Experimental: The mechanism of uptake of CVP1 in HCT116 cells was investigated by means of physical and chemical inhibition of endocytosis. Incubation of peptide and cells at 37 or 4 °C were treated to measure the influence of temperature on peptide internalization (used as a physical means of inhibition of endocytosis). HCT116 cells cultured in 12-well plates were pretreated for 30 min with inhibitors: 30 µM chlorpromazine (a clathrin-mediated endocytosis inhibitor, which prevents the assembly of clathrin-coated pits at the inner surface of the cell membrane), 5 mM methylated-β-cyclodextrin (a caveolae-mediated endocytosis inhibitor, a cholesterol depletion agent), 10 µM 5-(N-ethyl-N-isopropyl) amilorid (a macropinocytosis inhibitor, which selectively blocks the Na^+/H^+ antiporter) and 50 µM LY294002 (a macropinocytosis inhibitor, a strong phosphatidylinositol-3 kinase inhibitor) as previously described. The cells were further incubated with the peptide for 50 min and then analyzed by flow cytometry. To investigate the effect of incubation time, the HCT116 cells were incubated with CVP1 at 37 °C for different time periods.
# HCT116 cells [4] = conditions: up to 40 µM (5, 10, 20, 40 µM), 12, 24 and 48 h (Figure 3C)
# Experimental: Effect of CVP1 on the viability of cells was evaluated by MTT assay as described previously.
# pCDNA3.1-RFP plasmid = assay: Agarose gel retardation (gel-shift) assay of peptide-plasmid complex; assay type: binding; conditions: 5 µM peptide, 200 ng plasmid DNA, 37 °C 45 min, ethidium bromide
# Experimental: as §1
# poly (I:C) = assay: Gel retardation electrophoresis of peptide-poly (I:C) complex; assay type: binding; conditions: 10 µM peptide, 5 µg poly (I:C), 45 min 37 °C
# 293T cells = conditions: 5 µM FITC-labeled peptide, 30 min, 37 °C, serum-free medium, confocal microscopy
# Experimental: (§2) 293T cells, HCT-116 cells, 3T3 cells, MDCK cells and MSB1 cells were maintained in our laboratory and were grown in Dulbecco’s modified Eagle’s medium supplemented with 10% heated-inactivated fetal bovine serum (FBS) and 1% penicillin–streptomycin solution at 37 °C and 5% CO2.
# (§3) Firstly, 2.0 × 10^5 of 293T cells, HCT-116 cells, 3T3 cells or MDCK cells were seeded onto glass cover slides in 24-well plates and cultured for 12 h. The cells were then washed with phosphate buffered saline (PBS) and incubated with 5 µM of FITC-labeled CVP1, TAT and Mut-CVP1 peptides in 500 µL serum-free medium for 30 min. The concentration-dependent intake of CVP1 peptide in HCT-116 cells was then evaluated. In brief, after incubation of cells with FITC-CVP1 peptide for 30 min, cells were washed for three times and stained with Hoechst 33342 (5 µg/mL) for 10 min. Finally, cells were washed three times with PBS and imaged using confocal laser scanning microscope (Leica, TCS SP8 STED and Germany) at 60× magnification.
# MDCK cells = conditions: 5 µM FITC-labeled peptide, 30 min, 37 °C, serum-free medium, confocal microscopy
# Experimental: as §2, §3
# HCT116 cells [5] = conditions: 5 µM FITC-labeled peptide, 30 min, 37 °C, serum-free medium, confocal microscopy
# Experimental: as §2, §3
# 3T3 cells = conditions: 5 µM FITC-labeled peptide, 30 min, 37 °C, serum-free medium, confocal microscopy
# Experimental: as §2, §3
# HCT116 cells [6] = assay: β-galactosidase delivery, X-gal staining; assay type: cell-based; conditions: 20 µM peptide non-covalently complexed with 1 µg β-galactosidase, 1 h + 90 min at 37 °C, phase-contrast microscopy
# Experimental: Protein delivery ability of CVP1 was assessed using β-galactosidase enzyme as previously described. In brief, CVP1 and Mut-CVP1 at a concentration of 20 µM were non-covalently complexed with β-galactosidase (1 µL, 1 µg/µL) enzyme respectively. The mixtures were incubated for 30 min at room temperature (RT) for complex formation. The peptide-enzyme complex was added to the HCT116 cells with Opti-MEM media (100 µL) and the cells were incubated for 1 h at 37 °C. After incubation, complete media (150 µL) was added to the cells, and further incubated for 90 min at 37 °C. The cells were washed thoroughly with PBS to remove extracellular peptide-enzyme complex and fixed in PBS containing 1% formaldehyde and 0.2% glutaraldehyde for 15 min at RT. The cells were washed subsequently three times with PBS and stained with X-gal staining buffer (40 mM potassium ferricyanide, 40 mM potassium ferrocyanide, 20 mM magnesium chloride, 2 mg/mL of X-gal in PBS) for 90 min at 37 °C. Finally, the cells were analyzed under a phase-contrast microscope (Olympus) at 200× magnification and imaged.
# furin = conditions: motif (RKKR and RQRR) in the TAT sequence; cited from earlier work
# From the text: Generally, CPPs are composed of 5–30 amino acids (aa) with enriched lysine or arginine residues, and divided into three classes including amphipathic CPP, cationic CPP and hydrophobic CPP [2, 3]. […] As the pioneer of CPPs, HIV-TAT with 86 amino acids plays vital roles in the replication of HIV. It wa ...
# [7] = HCT116 cells, 0.1 µM FITC-labeled peptide, flow cytometry after trypsin 5 min to remove non-internalized peptide
# [8] = HCT116 cells, 1 µM FITC-labeled peptide, flow cytometry after trypsin 5 min
# [9] = HCT116 cells, 2 µM FITC-labeled peptide, flow cytometry after trypsin 5 min
# [10] = HCT116 cells, 5 µM FITC-labeled peptide, flow cytometry after trypsin 5 min
# [11] = HCT116 cells, 10 µM FITC-labeled peptide, flow cytometry after trypsin 5 min
substance,measurement,setting,value
"{FITC}-MARRARRPRGRFYAFRRGR [CVP1, N terminus (aa 1–19) of VP1 from chicken anemia virus, FITC-labeled cell-penetrating peptide]","efficacy of delivering plasmid, comparison with other carriers","HCT116 cells [1]; 48 h, flow cytometry, comparators TAT peptide, lipofectamine 2000",significantly higher signal of fluorescence than the TAT/RFP sample; also recorded: not as equal as commercial transfection reagents
same,RFP fluorescence of cells treated with peptide-pCDNA3.1-RFP complex,HCT116 cells [1],strong fluorescence
same,mean percent of relative internalization,HCT116 cells [2]; [7],0.1%
same,mean percent of relative internalization,HCT116 cells [2]; [8],2.1%
same,mean percent of relative internalization,HCT116 cells [2]; [9],18.7%
same,mean percent of relative internalization,HCT116 cells [2]; [10],86%
same,intensity of fluorescence in cells versus incubation time,"HCT116 cells [2]; HCT116 cells, 5 µM peptide, 5, 10, 15, 20, 25, 30 min, flow cytometry (Figure 3B)",increased as the incubation time was increased from 5 to 30 min
same,mean percent of relative internalization,HCT116 cells [2]; [11],98%
same,cell-penetrating efficiency versus concentration,"HCT116 cells [2]; HCT116 cells, 1, 2, 5, 10, 20, 40 µM, 30 min, 37 °C, flow cytometry (Figure 3A)",dose-dependent
same,"capacity of delivering poly (I:C), comparison with other carriers","HD11 cells; IFN-β mRNA by real-time PCR, comparators TAT, transfection reagent",higher than the TAT; also recorded: not as equal as commercial transfection reagents
same,IFN-β mRNA expression of cells treated with peptide/poly (I:C) complexes versus naked peptide or poly (I:C) only,HD11 cells; real-time PCR,significantly increased
same,effect of EIPA on cellular intake of the peptide,"HCT116 cells [3]; HCT116 cells pretreated 30 min with 10 µM 5-(N-ethyl-N-isopropyl) amiloride (macropinocytosis inhibitor), then peptide 50 min",unable to inhibit
same,effect of CPZ on cellular intake of the peptide,"HCT116 cells [3]; HCT116 cells pretreated 30 min with 30 µM chlorpromazine (clathrin-mediated endocytosis inhibitor), then peptide 50 min",unable to inhibit
same,effect of LY294002 on cellular intake of the peptide,"HCT116 cells [3]; HCT116 cells pretreated 30 min with 50 µM LY294002 (macropinocytosis inhibitor), then peptide 50 min",only slightly blocked
same,effect of MβCD on cellular intake of the peptide,"HCT116 cells [3]; HCT116 cells pretreated 30 min with 5 mM methylated-β-cyclodextrin (caveolae-mediated endocytosis inhibitor), then peptide 50 min",significantly reduced
same,cell-penetrating activity at 4 °C,"HCT116 cells [3]; HCT116 cells, 10 µM peptide, 4 °C compared with 37 °C",efficiently inhibited
same,"toxicity to cells (cell viability, MTT)",HCT116 cells [4],non-toxic
same,migration of plasmid conjugated with peptide (DNA binding capacity),pCDNA3.1-RFP plasmid,much lower migration speed than naked plasmid
same,complex formation with poly (I:C),poly (I:C),could conjugate with the poly (I:C) to form a complex
same,specific green fluorescence dots in cells (internalization),293T cells,clearly observed
same,specific green fluorescence dots in cells (internalization),MDCK cells,clearly observed
same,specific green fluorescence dots in cells (internalization),HCT116 cells [5],clearly observed
same,specific green fluorescence dots in cells (internalization),3T3 cells,clearly observed
same,X-gal staining of cells treated with peptide-β-galactosidase complex,HCT116 cells [6],strong blue color
{FITC}-MAAGAGAPAGAFYAFGAGA [Mut-CVP1],RFP fluorescence of cells treated with peptide-pCDNA3.1-RFP complex,HCT116 cells [1],no fluorescence
same,cell-penetrating activity (overall),"HCT116 cells [2]; HCT116 cells, FITC-labeled peptide, confocal imaging and flow cytometry",did not show any cell-penetrating activity
same,specific green fluorescence dots in cells (internalization),HCT116 cells [5],not
same,X-gal staining of cells treated with peptide-β-galactosidase complex,HCT116 cells [6],very weak blue background
"FITC-YGRKKRRQRRR [TAT, reference compound]",mean percent of relative internalization,HCT116 cells [2]; [7],0.1%
same,mean percent of relative internalization,HCT116 cells [2]; [8],0.4%
same,mean percent of relative internalization,HCT116 cells [2]; [9],1.7%
same,mean percent of relative internalization,HCT116 cells [2]; [10],25%
same,mean percent of relative internalization,HCT116 cells [2]; [11],61%
same,stability toward furin,furin,cleaved by furin
